pEC50: −log10 of the molar value.
Key:
[1] = Chemical stability in buffer; format: physicochemical; settings: PBS(Ph 7.4) 10 um, 37° C.; read-out: Chemical Stability T½
Method: 1 mM test compound spiking solution (spiking solution A) was prepared by adding 10 μL of 10 mM a test compound stock solution to 90 μL of DMSO. 396 μL of buffer were added into tubes designated for different time points. The samples were pre-warmed at 37° C. for 10 minutes. 4 μL of spiking solution A was added into the wells containing 396 μL of buffer that were designated as 0 min, 15 min, 45 min, or 60 min. The timer was started after the addition of the spiking solution. At each time point, 1200 μL of acetonitrile (ACN) containing an internal standard was added to the tubes. The samples were centrifuged at 10,000 rpm for 5 minutes and 100 μL of the supernatant was removed and analyzed by for LC-MS/MS analysis.

[2] = Metabolic stability in liver microsomes (human); format: in vitro ADME
Method: Buffers A-C were prepared for use in the metabolic study. The buffers were as follows: Buffer A: 1.0 L of 0.1 M monobasic Potassium Phosphate buffer containing 1.0 mM EDTA; Buffer B: 1.0 L of 0.1 M Dibasic Potassium Phosphate buffer containing 1.0 mM EDTA; and Buffer C: 0.1 M Potassium Phosphate buffer, 1.0 mM EDTA, pH 7.4 by titrating 700 mL of buffer B with buffer A while monitoring with the pH meter.
Ketanserin was used as the reference compound. Reference compound and test compound spiking solutions (500 μM spiking solution) were prepared by adding 10 μL of 10 mM DMSO stock solution into 190 μL ACN. 1.5 μL of 500 μM spiking solution (0.75 mg/mL) and 18.75 μL of 20 mg/mL liver microsomes were added into 479.75 μL of Buffer C on ice.
A 6 mM NADPH stock solution was prepared by dissolving an appropriate amount of NADPH into buffer C. 30 μL of 1.5 μM spiking solution containing 0.75 mg/mL microsomes solution was dispensed to the assay plates designated for different time points (0-, 5-, 15-, 30-, 45-min) on ice. […] All the other plates were pre-incubated at 37° C. for 5 minutes. 15 μL of 6 mM NADPH stock solution was added to the plates to start the reaction and time. At 5-min, 15-min, 30-min, and 45-min, 135 μL of ACN containing internal standard were added to the wells of corresponding plates, respectively, to stop the reaction. […]

[3] = test system: SD rats; assay: SD rat chronic constriction injury (CCI) model; format: in vivo; settings: mechanical pain threshold 1, 2, 4 h post-administration, compound 8 single subcutaneous injection
Description: This model involves the use of a non-absorbable 5-0 suture to loosely ligate the sciatic nerve, causing slight compression of its outer sheath. Mechanical compression by the suture induces axonal damage, leading to abnormal discharge. Additionally, the local stimulation from the ligature induces the release of inflammatory mediators.
Furthermore, CCI selectively damages the larger myelinated fibers of the sciatic nerve while preserving most of the unmyelinated C fibers responsible for transmitting pain.
After initial screening, rats are sequentially numbered and randomly assigned to groups based on the numbering, using a random grouping method. Experimental groups are established based on trial conditions.

[4] = test system: SD rats; assay: SD rat carrageenan acute inflammation model; format: in vivo; settings: for Changes in Foot Swelling Rate (Mean ± SEM) / Foot Swelling Degrees (Mean ± SEM): SD rat carrageenan
Method: Using an electronic caliper for accuracy, the thickness of the rat's footpad was measured. Rats were then restrained, and 100 μl of 1% carrageenan was subcutaneously injected into the right hind footpad to induce inflammation, thereby establishing an acute inflammation model using carrageenan. Each compound was administered in advance according to the respective dosing time points. The swelling of the rat's foot was measured at various time points: before modeling (0 h) and after modeling (2, 4, 7 h). A comparison was made between footpad swelling before and after modeling. […] The results of the carrageenan-induced acute inflammation model experiment are depicted in FIG. 1.

[5] = molecular target: hERG potassium channel (Homo sapiens, UniProt Q12809); assay: in vitro; settings: hERG Current Inhibition Rate (%) Mean
[6] = molecular target: T1, SSTR4 (Homo sapiens, UniProt P31391); assay: FLIPR assay for agonists, HEK293/Gα15/SSTR4 cells; format: cell-based; settings: read-out: SSTR4 Agonist Activity in FLIPR Assay EC50
T1 construct: host or cells: HEK293/Gα15/SSTR4
Method: The study was carried out at HD Biosciences (Shanghai, China) according to the following steps.
Step 1: Test compounds were diluted to a 400×stock solution in DMSO in a 384-well plate.
Step 2: 1 μL of the compound solution was transferred from Step 1 to 79 μL of assay buffer, creating a 5×working solution in the 384-well plate using the Bravo method.
Step 3: HEK293/Gα15/SSTR1-5 cells were cultured in DMEM medium (10% FBS).
Step 4: When cells reached 80% confluence, the cells were separated using 0.25% trypsin-EDTA.
Step 5: The cell density was measured and the cells diluted to 1×10^6/mL using DMEM (10% FBS).
Step 6: 30 μL of cells were dispensed into each well of a Matrigel-coated 384-well plate (Corning 3764#) using a multi-channel pipette (30,000 cells per well) and cultured for 20-24 hours at 37° C. and 5% CO2.
Step 7: 10 μL of dye was added to each well in the cell plate prepared in Step 6.
Step 8: The dye and cells were incubated in the dark at 37° C. and 5% CO2 for 1 hour.
Step 9: After 1 hour, the FLIPR program was loaded, the pipette tips placed cell plate and compound plate (from Step 2) into the machine, and the run button was pressed. The program added 10 μL to 40 μL to the cell plate. FLIPR was used to read the plate at room temperature according to the specified settings and the data was saved.

[7] = Hepatocyte stability; settings: rat, hepatocytes
Method: Vials with hepatocytes were removed from a liquid nitrogen storage unit and immediately placed in a 37±1° C. shaking water bath for 2 min±15 sec. The hepatocytes were poured into 50 mL of hepatocytes thawing medium, mixed gently, and centrifuged at 500 rpm for 3 minutes. After centrifugation, the supernatant was carefully aspirated without disturbing the pellet. 10× the volume of pre-warmed KHB buffer (Krebs-Henseleit buffer, Sigma Cat #K3753-10X1L) with 5.6 g/L HEPES was used to resuspend the cell pellet. The pellet mixture was centrifuged at 500 rpm for 3 minutes, aspirated, and the supernatant discarded without disturbing the cell pellet. The cell viability and yield were determined. The hepatocytes were counted, and the cell suspensions were diluted to the appropriate cell density. The viable cell density was 2×10^6 cells/mL. The hepatocyte solution was placed on ice until it was used.
Two dosing solutions of prewarmed KHB (1% DMSO) were prepared. 200 μM spiking solution was prepared by adding 20 μL of substrates stock solution (10 mM) into 980 μL of DMSO. Two dosing solutions were prepared by adding 10 μL of 200 μM spiking solution into 990 μL of KHB (2 μM after dilution). The dosing solution was centrifuged at 5594 g for 15 min (Thermo Multifuge×3R). 50 μL of pre-warmed 2×dosing solution was added to the wells designated for the different time points. […] After the addition of the hepatocytes, the timer was started. The assay was placed in an incubator at 37° C. 100 μL of ACN containing IS was added to the wells designed for 0 min, the wells were mixed gently, then 50 μL of pre-warmed hepatocytes solution (2×10^6 cells/mL) was added. The wells were sealed. […] Next, the wells were sealed. After quenching, the plates were shaken on a vibrator (IKA, MTS 2/4) for 10 min at 600 rpm. The plate was sonicated for 2 min and centrifuged at 5594 g for 15 min (Thermo Multifuge×3R). 50 μL of the supernatant was transferred from each well into a 96-well sample plate containing 50 μL of ultra pure water (Millipore, ZMQS50F01) for LC/MS analysis.

hERG potassium channel, sequence (Q12809 whole entry): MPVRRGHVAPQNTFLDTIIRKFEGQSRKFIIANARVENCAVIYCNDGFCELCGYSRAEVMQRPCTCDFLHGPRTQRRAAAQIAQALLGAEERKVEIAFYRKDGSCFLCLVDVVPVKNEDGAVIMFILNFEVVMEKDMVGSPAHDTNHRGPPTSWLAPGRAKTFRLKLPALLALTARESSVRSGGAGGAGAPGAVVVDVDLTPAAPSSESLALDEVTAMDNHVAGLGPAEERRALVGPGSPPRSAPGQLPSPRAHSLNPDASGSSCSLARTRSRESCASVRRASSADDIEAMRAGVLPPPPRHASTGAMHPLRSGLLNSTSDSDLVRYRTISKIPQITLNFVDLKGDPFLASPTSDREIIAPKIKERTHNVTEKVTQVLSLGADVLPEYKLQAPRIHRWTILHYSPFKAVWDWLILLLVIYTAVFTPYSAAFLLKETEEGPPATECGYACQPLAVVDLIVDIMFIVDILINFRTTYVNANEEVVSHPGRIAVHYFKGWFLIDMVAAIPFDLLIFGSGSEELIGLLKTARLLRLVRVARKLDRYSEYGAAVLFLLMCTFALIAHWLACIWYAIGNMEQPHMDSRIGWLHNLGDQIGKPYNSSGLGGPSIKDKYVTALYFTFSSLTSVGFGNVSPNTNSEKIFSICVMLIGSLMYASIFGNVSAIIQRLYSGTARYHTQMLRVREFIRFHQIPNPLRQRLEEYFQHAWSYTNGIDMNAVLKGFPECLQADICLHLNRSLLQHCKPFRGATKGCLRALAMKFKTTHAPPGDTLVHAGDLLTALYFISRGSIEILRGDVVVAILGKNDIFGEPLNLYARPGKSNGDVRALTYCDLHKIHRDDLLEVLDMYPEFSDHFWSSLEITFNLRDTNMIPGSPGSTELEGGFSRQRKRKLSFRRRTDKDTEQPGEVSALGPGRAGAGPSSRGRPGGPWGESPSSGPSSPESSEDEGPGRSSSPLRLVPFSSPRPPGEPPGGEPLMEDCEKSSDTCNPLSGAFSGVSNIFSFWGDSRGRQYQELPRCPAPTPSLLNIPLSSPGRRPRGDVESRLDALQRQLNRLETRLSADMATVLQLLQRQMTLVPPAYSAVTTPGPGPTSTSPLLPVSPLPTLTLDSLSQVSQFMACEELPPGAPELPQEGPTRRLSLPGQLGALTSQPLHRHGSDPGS
T1 sequence (P31391 whole entry): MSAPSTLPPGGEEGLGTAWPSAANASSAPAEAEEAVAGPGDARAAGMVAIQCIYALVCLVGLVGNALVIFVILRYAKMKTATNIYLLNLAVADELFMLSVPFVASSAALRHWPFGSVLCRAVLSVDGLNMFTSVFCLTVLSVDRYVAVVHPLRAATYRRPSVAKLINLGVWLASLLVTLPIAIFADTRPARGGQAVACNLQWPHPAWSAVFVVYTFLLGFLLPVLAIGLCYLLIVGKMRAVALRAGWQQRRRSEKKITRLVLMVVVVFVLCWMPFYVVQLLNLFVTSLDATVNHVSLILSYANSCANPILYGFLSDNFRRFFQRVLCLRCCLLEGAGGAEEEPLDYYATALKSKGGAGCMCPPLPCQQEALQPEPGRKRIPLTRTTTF

Work on `CC(C)(NC(=O)[C@H]1[C@@H]2CNC[C@H]1C2)c1ncc2c(Br)cccn12` [Compound 8, (1R,5S,6r)-N-(2-(8-bromoimidazo[1,5-a]pyridin-3-yl)propan-2-yl)-3-azabicyclo[3.1.1]heptane-6-carboxamide] yielded a half-life at 10 μM [1] of 81.3 h, a CLint scaled at 1 μM ([2]; pH 7.4) of 29.5 mL/min/kg and a half-life at 1 μM ([2]; pH 7.4, read-out: Metabolic stability T½) of 1.4 h. The “Effect on neuropathic pain in CCI model” value [3] was “significantly affected the SD rat CCI model”, the “Changes in Foot Swelling Rate (Mean ± SEM)” value (“Changes … (Mean ± SEM)” below) ([4]; 0 h (before modeling)) was 0% and the “Foot Swelling Degrees (Mean ± SEM)” value ([4]; 0 h (before modeling)) was 4.02 ± 0.09 mm. For the same compound, the “Changes … (Mean ± SEM)” value ([4]; 2 h after modeling) was 36.28 ± 5.75%, the “Foot Swelling Degrees (Mean ± SEM)” value ([4]; 2 h after modeling) was 5.51 ± 0.13 mm and the “Changes … (Mean ± SEM)” value ([4]; 4 h after modeling) was 42.25 ± 2.63%. The “Foot Swelling Degrees (Mean ± SEM)” value ([4]; 4 h after modeling) was 5.78 ± 0.05 mm, the “Changes … (Mean ± SEM)” value ([4]; 7 h after modeling) was 34.30 ± 4.17% and the “Foot Swelling Degrees (Mean ± SEM)” value ([4]; 7 h after modeling) was 5.44 ± 0.11 mm. The “Anti-inflammatory effect in carrageenan model” value ([4]; single subcutaneous injection of 30 mg/kg, SD rats) was “demonstrated anti-inflammatory tendencies”, the inhibition at 0.3 µM [5] was -3.49% and the inhibition at 1 µM [5] was -3.67%. The inhibition at 3 µM [5] was -2.44%, the inhibition at 10 µM [5] was -1.66% and the inhibition at 30 µM [5] was -0.15%. The pEC50 [6] was 8.48.

Work on `CC(C)(NC(=O)[C@H]1[C@@H]2CNC[C@H]1C2)c1nc(C2CC2)c2ccccn12` [Compound 9, (1R,5S,6r)-N-(2-(1-cyclopropylimidazo[1,5-a]pyridin-3-yl)propan-2-yl)-3-azabicyclo[3.1.1]heptane-6-carboxamide] yielded a CLint scaled at 1 μM [7] of 3.17 mL/min/kg and a half-life at 1 μM [7] of 17.1 h.
